The values that follow come from US20260077051A1, “COMPOUNDS FOR THE DEGRADATION OF EGFR KINASE” (BeOne Medicines I GmbH, priority 2023, published 2026).

Molecules are shown by their SMILES.

The term DC50 denotes the midpoint of the concentration-degradation curve. In general, Dmax refers to the largest share of the target that was removed. Low values mean shallow degradation, high ones deep degradation.

Experiment [1] has as its target T1, EGFR L858R (BaF3-L858R cells) (Homo sapiens, UniProt P00533, L858R).
T1 construct: host or cells: BaF3
In words: EGFR degradation in BaF3-L858R cells (HTRF assay). Particulars: 16 h treatment; for DC50: IC50(DC50) of EGFR degradation; for Dmax: maximum percentage of inhibition (degradation). The format is cell-based. Here is the method: BaF3-L858R (abbv. L858R) cell were purchased from Kangyuan Bochuang Biotechnology (Beijing) Co., Ltd.
(§1) H1975-#8 and BaF3-L858R cells are treated with compounds diluted in 0.1% DMSO cell culture medium on day 2, incubate for 16 h, 37° C., 5% CO2. the final concentration of compounds in all assay is start with 10 uM, 5-fold dilution, total 8 doses were included.
(§2) After 16 h treatment, for H1975-#8 cells, add 100 ul HTRF 1× lysis buffer to each well; for BaF3-L858R cells, add 20 μl 4× lysis buffer to each well; seal the plate and incubate 1 hour at room temperature on a plate shaker; Once the cells are lysed, 16 μL of cell lysate are transferred to a PE 384-well HTRF detection plate; 4 μL of pre-mixed HTRF antibodies are added to each well; Cover the plate with a plate sealer, spin 1000 rpm for 1 min, Incubate overnight at room temperature; Read on BMG PheraStar with HTRF protocol (337 nm-665 nm-620 nm).
(§3) The inhibition (degradation) percentage of the compound was calculated by the following equation:
(§4) High control=Cell group with added DMSO and without compound, indicating microplate readings without EGFR degradation;
(§5) Dmax is the maximum percentage of inhibition (degradation).
(§6) The IC50(DC50) value of a compound can be obtained by fitting the following equation
(§7) Wherein, X and Y are known values, and IC50, Hillslope, Top and Bottom are the parameters obtained by fitting with software. Y is the inhibition percentage (calculated from the equation), X is the concentration of the compound; IC50 is the concentration of the compound when the 50% inhibition is reached. The smaller the IC50 value is, the stronger the inhibitory ability of the compound is. Vice versa, the higher the IC50 value is, the weaker the ability the inhibitory ability of the compound is; Hillslope represents the slope of the fitted curve, generally around 1*; Bottom represents the minimum value of the curve obtained by data fitting, which is generally 0%±20%; Top represents the maximum value of the curve obtained by data fitting, which is generally 100%±20%. The experimental data were fitted by calculating and analyzing with Dotmatics data analysis software.
(In general: In TR-FRET formats the signal depends on donor and acceptor labels being close together.)

The target in experiment [2] is T2, EGFR-L858R/C797S (H1975-clone #8 cells) (Homo sapiens, UniProt P00533, C797S/L858R).
T2 construct: expressed in transfected cells; host or cells: H1975 (lentiviral transduction, endogenous EGFR knocked out, single clone #8)
As to the kind of experiment: EGFR degradation in H1975-clone#8 (L858R/C797S) cells (HTRF assay). The format is cell-based. Conditions: 16 h treatment; for DC50: IC50(DC50) of EGFR degradation; for Dmax: maximum percentage of inhibition (degradation). The method, then: H1975-clone #8 (L858R/C797S): EGFR-L858R/C797S were stably expressed in H1975 cell lines by lentivirus-mediated over-expression, respectively. The EGFR over-expressed cells then underwent knockout, in which the EGFR targeting sgRNA was designed to only target the endogenous EGFR copies and preserve the exogenous EGFR copies. Followed by the knockout, the edited H1975 cells were seeded in 96 well plates at the concentration of […], cultured for about 2 weeks to allow single clones formation. The formed clones were screened by DNA sequencing and whole exon sequencing analysis for the desired edition. H1975-clone #8 were finally confirmed as homozygous L858R/C797S EGFR clones.
as §1, §2, §3, §4, §5, §6, §7

T1 sequence (P00533 25-1210 L858R): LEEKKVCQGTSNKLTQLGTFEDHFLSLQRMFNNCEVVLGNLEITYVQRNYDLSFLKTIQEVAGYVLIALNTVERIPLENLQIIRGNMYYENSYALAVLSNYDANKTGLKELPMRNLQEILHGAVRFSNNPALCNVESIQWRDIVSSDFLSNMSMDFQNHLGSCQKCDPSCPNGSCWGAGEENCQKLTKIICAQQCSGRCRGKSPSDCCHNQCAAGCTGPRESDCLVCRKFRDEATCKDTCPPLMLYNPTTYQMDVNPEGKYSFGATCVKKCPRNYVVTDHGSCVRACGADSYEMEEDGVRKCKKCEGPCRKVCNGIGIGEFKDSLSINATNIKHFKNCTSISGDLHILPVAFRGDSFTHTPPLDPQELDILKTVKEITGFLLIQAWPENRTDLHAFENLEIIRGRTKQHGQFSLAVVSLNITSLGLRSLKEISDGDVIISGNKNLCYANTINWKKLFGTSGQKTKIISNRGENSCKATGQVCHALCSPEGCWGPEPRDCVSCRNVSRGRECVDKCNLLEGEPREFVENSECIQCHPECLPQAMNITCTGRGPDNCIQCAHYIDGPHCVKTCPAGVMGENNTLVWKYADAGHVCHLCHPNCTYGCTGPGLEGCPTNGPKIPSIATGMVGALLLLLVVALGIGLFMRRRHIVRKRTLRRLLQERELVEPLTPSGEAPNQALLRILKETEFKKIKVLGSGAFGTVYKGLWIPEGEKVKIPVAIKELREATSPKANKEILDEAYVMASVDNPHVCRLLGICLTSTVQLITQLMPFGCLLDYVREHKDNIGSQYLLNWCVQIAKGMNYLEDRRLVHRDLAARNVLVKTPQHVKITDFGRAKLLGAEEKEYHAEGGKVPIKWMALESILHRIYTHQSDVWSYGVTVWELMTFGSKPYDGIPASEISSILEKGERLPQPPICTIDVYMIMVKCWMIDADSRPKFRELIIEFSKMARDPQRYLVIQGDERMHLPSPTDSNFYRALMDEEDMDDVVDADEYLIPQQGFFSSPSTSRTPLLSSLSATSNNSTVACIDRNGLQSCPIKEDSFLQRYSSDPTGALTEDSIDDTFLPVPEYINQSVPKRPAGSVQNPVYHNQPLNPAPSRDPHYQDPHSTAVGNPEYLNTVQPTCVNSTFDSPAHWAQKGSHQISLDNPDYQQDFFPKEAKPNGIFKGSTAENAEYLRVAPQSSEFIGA
T2 sequence (P00533 25-1210 C797S/L858R): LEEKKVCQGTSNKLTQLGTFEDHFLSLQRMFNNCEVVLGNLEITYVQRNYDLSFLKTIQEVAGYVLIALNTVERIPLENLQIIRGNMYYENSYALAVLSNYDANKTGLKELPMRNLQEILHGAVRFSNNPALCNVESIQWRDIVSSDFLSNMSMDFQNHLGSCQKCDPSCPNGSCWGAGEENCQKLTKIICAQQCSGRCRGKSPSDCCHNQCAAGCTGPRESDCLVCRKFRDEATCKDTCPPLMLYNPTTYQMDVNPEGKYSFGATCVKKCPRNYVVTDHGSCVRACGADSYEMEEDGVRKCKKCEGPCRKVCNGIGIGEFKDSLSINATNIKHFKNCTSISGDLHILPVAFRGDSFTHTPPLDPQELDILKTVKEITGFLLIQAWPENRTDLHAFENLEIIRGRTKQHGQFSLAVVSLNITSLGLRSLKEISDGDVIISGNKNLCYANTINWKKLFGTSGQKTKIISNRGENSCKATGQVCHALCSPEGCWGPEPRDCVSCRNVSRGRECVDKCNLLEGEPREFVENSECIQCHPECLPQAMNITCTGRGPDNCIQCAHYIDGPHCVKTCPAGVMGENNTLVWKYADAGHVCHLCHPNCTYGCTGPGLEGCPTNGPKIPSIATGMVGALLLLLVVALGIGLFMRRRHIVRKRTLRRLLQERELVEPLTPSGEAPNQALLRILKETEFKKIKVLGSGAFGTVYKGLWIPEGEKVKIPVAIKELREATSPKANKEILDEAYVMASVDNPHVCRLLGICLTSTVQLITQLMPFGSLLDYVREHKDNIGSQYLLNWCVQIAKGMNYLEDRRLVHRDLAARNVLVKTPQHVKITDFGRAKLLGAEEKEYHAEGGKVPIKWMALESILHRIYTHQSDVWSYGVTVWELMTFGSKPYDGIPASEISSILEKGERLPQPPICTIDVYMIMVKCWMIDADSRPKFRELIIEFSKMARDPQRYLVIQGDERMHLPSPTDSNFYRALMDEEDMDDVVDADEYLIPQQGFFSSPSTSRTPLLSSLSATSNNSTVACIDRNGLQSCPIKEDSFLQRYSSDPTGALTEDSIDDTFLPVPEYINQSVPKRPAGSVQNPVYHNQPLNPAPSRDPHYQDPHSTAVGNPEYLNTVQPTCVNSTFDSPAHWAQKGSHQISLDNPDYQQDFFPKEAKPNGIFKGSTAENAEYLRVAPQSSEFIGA

For `CCc1nc(C2CCC(=O)NC2=O)ccc1N1CCC(N2CCN(c3ccc4c(c3)N3C[C@H]5C[C@@H]5CCOc5c(cnn5C)-c5cc(cc(C)n5)C(=O)/N=C/3N4)CC2)CC1` (stereo partly shown) [Example 14, 3-(5-(4-(4-4((7^1S,7^2R,E)-1^1,2^6-dimethyl-3-oxo-5^2,5^3-dihydro-1^1H,5^1H-10-oxa-4-aza-5 (2,1)-benzo[d]imidazola-2 (2,4)-pyridina-1 (4,5)-pyrazola-7 (1,2)-cyclopropanacyclodecaphane-5^6-yl)piperazin-1-yl)piperidin-1-yl)-6-ethylpyridin-2-yl)piperidine-2,6-dione], the DC50 in experiment [1] turned out to be 9.37 nM; in experiment [2], 5.8 nM. The results for the Dmax in experiment [1] and in experiment [2] were 84.4% and 51.4%, respectively.
On to `Cc1cc2cc(n1)-c1cnn(C)c1OCC[C@H]1C[C@@H]1CN1/C(=N/C2=O)Nc2ccc(N3CCN(C4CCN(c5c(C)cc(C6CCC(=O)NC6=O)nc5C)CC4)CC3)cc21` (stereo partly shown) [Example 15, 3-(5-(4-(4-((7^1S,7^2R,E)-1^1,2^6-dimethyl-3-oxo-5^2,5^3-dihydro-1^1H,5^1H-10-oxa-4-aza-5 (2,1)-benzo[d]imidazola-2 (2,4)-pyridina-1 (4,5)-pyrazola-7 (1,2)-cyclopropanacyclodecaphane-5^6-yl)piperazin-1-yl)piperidin-1-yl)-4,6-dimethylpyridin-2-yl)piperidine-2,6-dione], for which, in experiment [1], it took 4.48 nM to reach half-maximal degradation (DC50) and the Dmax came out at 82.5%. In addition, in experiment [2], it took 4.96 nM to reach half-maximal degradation (DC50) and the Dmax is 46.1%.
In experiment [1], `Cc1cc2cc(n1)-c1cnn(C)c1OCC[C@H]1C[C@@H]1CN1/C(=N/C2=O)Nc2ccc(N3CCN(C4CCN(c5cc(F)c(C6CCC(=O)NC6=O)nc5C)CC4)CC3)cc21` (stereo partly shown) [Example 16, 3-(5-(4-(4-((7^1S,7^2R,E)-1^1,2^6-dimethyl-3-oxo-5^2,5^3-dihydro-1^1H,5^1H-10-oxa-4-aza-5 (2,1)-benzo[d]imidazola-2 (2,4)-pyridina-1 (4,5)-pyrazola-7 (1,2)-cyclopropanacyclodecaphane-5^6-yl)piperazin-1-yl)piperidin-1-yl)-3-fluoro-6-methylpyridin-2-yl)piperidine-2,6-dione] showed a DC50 of 18 nM and a maximal degradation (Dmax) of 76.4%. For the same molecule, in experiment [2], it took 7.82 nM to reach half-maximal degradation (DC50) and the Dmax worked out at 73.3%.
In the same order, the values of `Cc1cc2cc(n1)-c1cnn(C)c1OCC[C@]1(C)C[C@H]1CN1/C(=N/C2=O)Nc2ccc(N3CCN(C4CCN(c5cc(F)c([C@H]6CCC(=O)NC6=O)c(F)c5)CC4)CC3)cc21` [Example 17, (R)-3-(2,6-difluoro-4-(4-(4-((7^1R,7^2S,E)-1^1,2^6,7^2-trimethyl-3-oxo-5^2,5^3-dihydro-1^1H,5^1H-10-oxa-4-aza-5 (2,1)-benzo[d]imidazola-2 (2,4)-pyridina-1 (4,5)-pyrazola-7 (1,2)-cyclopropanacyclodecaphane-5^6-yl)piperazin-1-yl)piperidin-1-yl)phenyl)piperidine-2,6-dione] are 2.32 nM, 84.1%, 1.6 nM and 68.7%.
In experiment [1], `Cc1cc2cc(n1)-c1cnn(C)c1OCC[C@H]1C[C@@H]1CN1/C(=N/C2=O)Nc2ccc(N3CCN(C4CCN(c5cccc6c5C(C)(C)C(=O)N6C5CCC(=O)NC5=O)CC4)CC3)cc21` (stereo partly shown) [Example 18, 3-(4-(4-(4-((7^1S,7^2R,E)-1^1,2^6-dimethyl-3-oxo-5^2,5^3-dihydro-1^1H,5^1H-10-oxa-4-aza-5 (2,1)-benzo[d]imidazola-2 (2,4)-pyridina-1 (4,5)-pyrazola-7 (1,2)-cyclopropanacyclodecaphane-5^6-yl)piperazin-1-yl)piperidin-1-yl)-3,3-dimethyl-2-oxoindolin-1-yl)piperidine-2,6-dione] registered a DC50 of 6.69 nM and a Dmax of 84.6%. Besides, in experiment [2], the DC50 turned out to be 5.12 nM and the greatest degradation seen (Dmax) is 66.3%.
In experiment [1], `Cc1cc2cc(n1)-c1cnn(C)c1OCC[C@]1(C)C[C@H]1CN1/C(=N/C2=O)Nc2ccc(N3CCN(C4CCN(c5ccc(C6CCC(=O)NC6=O)nc5C)CC4)CC3)cc21` (stereo partly shown) [Example 19, 3-(6-methyl-5-(4-(4-((7^1R,7^2S,E)-1^1,2^6,7^2-trimethyl-3-oxo-5^2,5^3-dihydro-1^1H,5^1H-10-oxa-4-aza-5 (2,1)-benzo[d]imidazola-2 (2,4)-pyridina-1 (4,5)-pyrazola-7 (1,2)-cyclopropanacyclodecaphane-5^6-yl)piperazin-1-yl)piperidin-1-yl)pyridin-2-yl)piperidine-2,6-dione] displayed a DC50 of 1.93 nM and a Dmax of 94.5%. In experiment [2], this molecule displayed a DC50 of 3 nM and a Dmax of 75%.
For `Cc1cc2cc(n1)-c1cnn(C)c1OCC[C@H]1C[C@@H]1CN1/C(=N/C2=O)Nc2ccc(N3CCN(C4CN(C5CCN(c6ccc(C7CCC(=O)NC7=O)nc6C)CC5)C4)CC3)cc21` (stereo partly shown) [Example 20, 3-(5-(4-(3-(4-((7^1S,7^2R,E)-1^1,2^6-dimethyl-3-oxo-5^2,5^3-dihydro-1^1H,5^1H-10-oxa-4-aza-5 (2,1)-benzo[d]imidazola-2 (2,4)-pyridina-1 (4,5)-pyrazola-7 (1,2)-cyclopropanacyclodecaphane-5^6-yl)piperazin-1-yl)azetidin-1-yl)piperidin-1-yl)-6-methylpyridin-2-yl)piperidine-2,6-dione], in experiment [1], the DC50 came out at 12.4 nM and the Dmax was determined as 86.8%. In experiment [2], this molecule yielded a DC50 of 0.603 nM and a Dmax of 59.1%.
Turning to `Cc1cc2cc(n1)-c1cnn(C)c1OCC[C@H]1C[C@@H]1CN1/C(=N/C2=O)Nc2ccc(N3CCN(CCc4c(C)cc(C5CCC(=O)NC5=O)nc4C)CC3)cc21` (stereo partly shown) [Example 21, 3-(5-(2-(4-((7^1S,7^2R,E)-1^1,2^6-dimethyl-3-oxo-5^2,5^3-dihydro-1^1H,5^1H-10-oxa-4-aza-5 (2,1)-benzo[d]imidazola-2 (2,4)-pyridina-1 (4,5)-pyrazola-7 (1,2)-cyclopropanacyclodecaphane-5^6-yl)piperazin-1-yl)ethyl)-4,6-dimethylpyridin-2-yl)piperidine-2,6-dione], the half-maximal degradation concentration (DC50) in experiment [1] turned out to be 1.65 nM; in experiment [2], 19.3 nM. Besides, the Dmax in experiment [1] is 82.8%; in experiment [2] it was 40.2%.
In the same order, the values of `Cc1cc2cc(n1)-c1cnn(C)c1OCC[C@H]1C[C@@H]1CN1/C(=N/C2=O)Nc2ccc(N3CCN(C4CN(C5CCN(c6c(C)cc(C7CCC(=O)NC7=O)nc6C)CC5)C4)C[C@@H]3C)cc21` (stereo partly drawn) [Example 22, 3-(5-(4-(3-((S)-4-((7^1S,7^2R,E)-1^1,2^6-dimethyl-3-oxo-5^2,5^3-dihydro-1^1H,5^1H-10-oxa-4-aza-5 (2,1)-benzo[d]imidazola-2 (2,4)-pyridina-1 (4,5)-pyrazola-7 (1,2)-cyclopropanacyclodecaphane-5^6-yl)-3-methylpiperazin-1-yl)azetidin-1-yl)piperidin-1-yl)-4,6-dimethylpyridin-2-yl)piperidine-2,6-dione] are 3.97 nM, 2.83 nM, 83.2% and 67.9%.
`Cc1cc2cc(n1)-c1cnn(C)c1OCC[C@H]1C[C@@H]1CN1/C(=N/C2=O)Nc2ccc(N3CCN(C4CN(C5CCN(c6c(C)cc(C7CCC(=O)NC7=O)nc6C)CC5)C4)C[C@H]3C)cc21` (stereo partly drawn) [Example 24, 3-(5-(4-(3-((R)-4-((7^1S,7^2R,E)-1^1,2^6-dimethyl-3-oxo-5^2,5^3-dihydro-1^1H,5^1H-10-oxa-4-aza-5 (2,1)-benzo[d]imidazola-2 (2,4)-pyridina-1 (4,5)-pyrazola-7 (1,2)-cyclopropanacyclodecaphane-5^6-yl)-3-methylpiperazin-1-yl)azetidin-1-yl)piperidin-1-yl)-4,6-dimethylpyridin-2-yl)piperidine-2,6-dione]: the DC50 in experiment [1] was determined as 3.66 nM; in experiment [2], 2.08 nM. The Dmax in experiment [1] stood at 80%; in experiment [2], 49.8%.
